Experimental data from patent US4387106A, “Method of treating atherosclerosis with di(aralkyl)ureas and di(aralkyl)thioureas” (American Cyanamid Company, priority 1982, dated 1983).

What follows are compounds tested against T1, fatty acyl CoA:cholesterol acyl transferase (ACAT) (Rattus norvegicus, UniProt O70536) (assay: In vitro inhibition of fatty acyl CoA:cholesterol acyl transferase (ACAT), rat adrenal supernatant). Settings: final concentration 5.2 μg./ml., pH 7.4, 37° C., oleoyl CoA (14C).
T1 construct: The supernatant, containing the microsomal fraction, served as the source of the cholesterol-esterifying enzyme; from tissue; host or cells: rat adrenals, homogenate, 1000 x g supernatant containing the microsomal fraction
T1 sequence (O70536 1-545): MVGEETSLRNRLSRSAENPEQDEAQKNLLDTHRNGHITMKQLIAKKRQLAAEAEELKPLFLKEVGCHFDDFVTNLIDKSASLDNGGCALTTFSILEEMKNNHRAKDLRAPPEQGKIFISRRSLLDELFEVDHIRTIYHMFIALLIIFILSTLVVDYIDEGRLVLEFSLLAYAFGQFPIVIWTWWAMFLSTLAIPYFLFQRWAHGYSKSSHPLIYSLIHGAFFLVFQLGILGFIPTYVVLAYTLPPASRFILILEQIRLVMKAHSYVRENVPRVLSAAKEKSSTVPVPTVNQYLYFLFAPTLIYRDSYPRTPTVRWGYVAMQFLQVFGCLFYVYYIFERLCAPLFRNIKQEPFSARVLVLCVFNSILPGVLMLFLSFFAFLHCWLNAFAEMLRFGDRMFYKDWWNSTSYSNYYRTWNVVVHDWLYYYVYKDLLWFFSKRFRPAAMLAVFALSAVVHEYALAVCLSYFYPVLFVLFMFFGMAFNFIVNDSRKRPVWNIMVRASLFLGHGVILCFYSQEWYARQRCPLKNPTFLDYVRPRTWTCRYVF
Format: biochemical
Method: The compounds were tested for their ability to inhibit ACAT according to the following procedure:
Rat adrenals were homogenized in 0.2 M monobasic potassium phosphate buffer, pH 7.4, and centrifuged at 1000 times gravity for 15 minutes at 5° C. The supernatant, containing the microsomal fraction, served as the source of the cholesterol-esterifying enzyme, fatty acyl CoA:cholesterol acyl transferase (ACAT). A mixture comprising 50 parts of adrenal supernatant, 10 parts of albumin (BSA) (50 mg./ml.), 3 parts of test compound (final concentration 5.2 μg./ml.) and 500 parts of buffer was preincubated at 37° C. for 10 minutes. After treatment with 20 parts of oleoyl CoA (^14 C--0.4 μCi) the mixture was incubated at 37° C. for 10 minutes. A control mixture, omitting the test compound, was prepared and treated in the same manner. The lipids from the incubation mixture were extracted into an organic solvent and separated by thin-layer chromatography. The cholesteryl ester fraction was counted in a scintillation counter.

Point of comparison: O=C(Nc1ccccc1Cl)N(Cc1ccccc1)Cc1ccccc1 [1,1-Dibenzyl-3-(2-chlorophenyl)urea], inhibition at 5.2 µg/mL 87.8%. Against it:
- Cc1cccc(NC(=O)N(Cc2ccccc2)Cc2ccccc2)c1 [1,1-Dibenzyl-3-(3-methylphenyl)urea] — higher, 88.9%
- O=C(Nc1ccccc1C(F)(F)F)N(Cc1ccccc1)Cc1ccccc1 [1,1-Dibenzyl-3-(2-trifluoromethylphenyl)urea] — lower, 68.4%
- O=C(Nc1ccc(Br)cc1Br)N(Cc1ccccc1)Cc1ccccc1 [1,1-Dibenzyl-3-(2,4-dibromophenyl)urea] — lower, 81.9%
- Cc1ccc(NC(=S)N(Cc2ccccc2)Cc2ccccc2)c(C)c1 [1,1-Dibenzyl-3-(2,4-dimethylphenyl)thiourea] — lower, 78.7%
- O=C(Nc1ccc(Cl)cc1)N(Cc1ccccc1)Cc1ccccc1 [1,1-Dibenzyl-3-(4-chlorophenyl)urea] — lower, 77.5%
- O=C(Nc1cc(Cl)cc(Cl)c1)N(Cc1ccccc1)Cc1ccccc1 [1,1-Dibenzyl-3-(3,5-dichlorophenyl)urea] — lower, 86.1%
- COc1ccc(OC)c(NC(=O)N(Cc2ccccc2)Cc2ccccc2)c1 [1,1-Dibenzyl-3-(2,5-dimethoxyphenyl)urea] — higher, 87.9%
- CC(C)c1cccc(C(C)C)c1NC(=O)N(Cc1ccccc1)Cc1ccccc1 [1,1-Dibenzyl-3-(2,6-isopropylphenyl)urea, 1,1-Dibenzyl-3-(2,6-diisopropylphenyl)urea] — lower, 59.1%
- CCCCOc1ccc(NC(=O)N(Cc2ccccc2)Cc2ccccc2)cc1 [1,1-Dibenzyl-3-(4-n-butoxyphenyl)urea] — higher, 90.2%
- O=C(Nc1cccc([N+](=O)[O-])c1)N(Cc1ccccc1)Cc1ccccc1 [1,1-Dibenzyl-3-(3-nitrophenyl)urea] — lower, 81.3%
- Cc1ccc(C)c(NC(=O)N(Cc2ccccc2)Cc2ccccc2)c1 [1,1-Dibenzyl-3-(2,5-dimethylphenyl)urea] — higher, 89.1%
- CCc1cccc(CC)c1NC(=O)N(Cc1ccccc1)Cc1ccccc1 [1,1-Dibenzyl-3-(2,6-diethylphenyl)urea] — lower, 72%
- CCOC(=O)c1ccc(NC(=S)N(Cc2ccccc2)Cc2ccccc2)cc1 [1,1-Dibenzyl-3-(4-carboethoxyphenyl)thiourea] — lower, 76.6%
- O=C(Nc1cccc2ccccc12)N(Cc1ccccc1)Cc1ccccc1 [1,1-Dibenzyl-3-(2,3-dibenzophenyl)urea] — higher, 90%
- Cc1c(Cl)cccc1NC(=O)N(Cc1ccccc1)Cc1ccccc1 [1,1-Dibenzyl-3-(3-chloro-2-methylphenyl)urea] — lower, 83.8%
- O=C(Nc1cc(Cl)ccc1Cl)N(Cc1ccccc1)Cc1ccccc1 [1,1-Dibenzyl-3-(2,5-dichlorophenyl)urea] — lower, 82.4%
- O=C(Nc1ccc(I)cc1)N(Cc1ccccc1)Cc1ccccc1 [1,1-Dibenzyl-3-(4-iodophenyl)urea] — lower, 85.2%
- O=C(Nc1cccc(Cl)c1Cl)N(Cc1ccccc1)Cc1ccccc1 [1,1-Dibenzyl-3-(2,3-dichlorophenyl)urea] — lower, 79.7%
- Cc1cccc(NC(=S)N(Cc2ccccc2)Cc2ccccc2)c1 [1,1-Dibenzyl-3-(3-methylphenyl)thiourea] — lower, 71.2%
- O=C(Nc1cccc(Cl)c1)N(Cc1ccccc1)Cc1ccccc1 [1,1-Dibenzyl-3-(3-chlorophenyl)urea] — higher, 94.2%
- Cc1cc(C)cc(NC(=O)N(Cc2ccccc2)Cc2ccccc2)c1 [1,1-Dibenzyl-3-(3,5-dimethylphenyl)urea] — higher, 90.2%
- COc1ccc(NC(=O)N(Cc2ccccc2)Cc2ccccc2)cc1 [1,1-Dibenzyl-3-(4-methoxyphenyl)urea] — lower, 71.6%
- O=C(Nc1ccccc1)N(Cc1ccccc1)Cc1ccccc1 [1,1-Dibenzyl-3-phenylurea, 1,1-Dibenzyl-3-phenyl urea] — higher, 90.4%
- O=C(Nc1ccccc1Br)N(Cc1ccccc1)Cc1ccccc1 [1,1-Dibenzyl-3-(2-bromophenyl)urea] — higher, 93.9%
- O=C(Nc1ccc(Cl)c(C(F)(F)F)c1)N(Cc1ccccc1)Cc1ccccc1 [1,1-Dibenzyl-3-(4-chloro-3-trifluoromethylphenyl)urea] — higher, 92%
- O=C(Nc1ccc(Br)cc1)N(Cc1ccccc1)Cc1ccccc1 [1,1-Dibenzyl-3-(4-bromophenyl)urea] — lower, 79.9%
- O=C(Nc1c(Cl)cccc1Cl)N(Cc1ccccc1)Cc1ccccc1 [1,1-Dibenzyl-3-(2,6-dichlorophenyl)urea] — higher, 88.6%
- Cc1ccc(NC(=O)N(Cc2ccccc2)Cc2ccccc2)cc1 [1,1-Dibenzyl-3-(4-methylphenyl)urea] — higher, 89.8%
- O=C(Nc1cc(F)ccc1F)N(Cc1ccccc1)Cc1ccccc1 [1,1-Dibenzyl-3-(2,5-difluorophenyl)urea] — lower, 72%
- O=C(Nc1ccc(Cl)c(Cl)c1)N(Cc1ccccc1)Cc1ccccc1 [1,1-Dibenzyl-3-(3,4-dichlorophenyl)urea] — higher, 94.5%
- COc1cccc(NC(=O)N(Cc2ccccc2)Cc2ccccc2)c1 [1,1-Dibenzyl-3-(3-methoxyphenyl)urea] — lower, 87%
- CCOc1ccc(NC(=O)N(Cc2ccccc2)Cc2ccccc2)cc1 [1,1-Dibenzyl-3-(4-ethoxyphenyl)urea] — higher, 95.8%
- COc1ccccc1NC(=O)N(Cc1ccccc1)Cc1ccccc1 [1,1-Dibenzyl-3-(2-methoxyphenyl)urea] — higher, 91%
- CC(=O)c1cccc(NC(=O)N(Cc2ccccc2)Cc2ccccc2)c1 [1,1-Dibenzyl-3-(3-acetylphenyl)urea] — lower, 80.7%
- Cc1ccccc1NC(=O)N(Cc1ccccc1)Cc1ccccc1 [1,1-Dibenzyl-3-(2-methylphenyl)urea] — lower, 77%
- CSc1ccc(NC(=O)N(Cc2ccccc2)Cc2ccccc2)cc1 [1,1-Dibenzyl-3-(4-methylthiophenyl)urea] — lower, 67.1%
- Cc1cccc(Cl)c1NC(=O)N(Cc1ccccc1)Cc1ccccc1 [1,1-Dibenzyl-3-(6-chloro-2-methylphenyl)urea] — lower, 83.9%
- CCc1cccc(C)c1NC(=O)N(Cc1ccccc1)Cc1ccccc1 [1,1-Dibenzyl-3-(6-ethyl-2-methylphenyl)urea] — lower, 73.6%
- O=C(Nc1cccc(C(F)(F)F)c1)N(Cc1ccccc1)Cc1ccccc1 [1,1-Dibenzyl-3-(3-trifluoromethylphenyl)urea] — higher, 94.2%
- O=C(Nc1ccc([N+](=O)[O-])cc1)N(Cc1ccccc1)Cc1ccccc1 [1,1-Dibenzyl-3-(4-nitrophenyl)urea] — lower, 52.2%
- FC(F)(F)c1cccc(NC(=S)N(Cc2ccccc2)Cc2ccccc2)c1 [1,1-Dibenzyl-3-(3-trifluoromethylphenyl)thiourea] — higher, 88.6%
- Cc1cccc(C)c1NC(=O)N(Cc1ccccc1)Cc1ccccc1 [1,1-Dibenzyl-3-(2,6-dimethylphenyl)urea] — lower, 56.1%
- O=C(O)c1ccc(NC(=O)N(Cc2ccccc2)Cc2ccccc2)cc1 [1,1-Dibenzyl-3-(4-carboxyphenyl)urea] — lower, 14.1%

Same assay, conditions: pH 7.4, final concentration 5.2 μg./ml., pH 7.4, 37° C., oleoyl CoA (14C)

Point of comparison: Cc1ccc(NC(=O)N(Cc2ccccc2)Cc2ccccc2)cc1 [1,1-Dibenzyl-3-(4-methylphenyl)urea], inhibition at 5.2 µg/mL 86.5%. Against it:
- O=C(Nc1ccc2ccccc2c1)N(Cc1ccccc1)Cc1ccccc1 [1,1-Dibenzyl-3-(3,4-dibenzophenyl)urea] — higher, 97.3%

Each compound was assayed on Cholesterol absorption (assay: not given). Settings: po, 0.03 % of diet, 336 h.

With O=C(Nc1ccccc1C(F)(F)F)N(Cc1ccccc1)Cc1ccccc1 [1,1-Dibenzyl-3-(2-trifluoromethylphenyl)urea] the “Result (inhibition of cholesterol absorption: lowering of serum or liver cholesterol relative to control)” value was “Active”.
Cc1ccc(NC(=S)N(Cc2ccccc2)Cc2ccccc2)c(C)c1 [1,1-Dibenzyl-3-(2,4-dimethylphenyl)thiourea] was tested, and the “Result (inhibition of cholesterol absorption: lowering of serum or liver cholesterol relative to control)” value was “Active”.
Cc1cccc(NC(=S)N(Cc2ccccc2)Cc2ccccc2)c1 [1,1-Dibenzyl-3-(3-methylphenyl)thiourea] was tested, and the “Result (inhibition of cholesterol absorption: lowering of serum or liver cholesterol relative to control)” value was “Active”.
